Earlier results in patent publication US9309247B2, “2-substituted imidazo[4,5-D]phenanthroline derivatives and their use in the treatment of cancer” (Aptose Biosciences Inc., priority 2013, dated 2016).

Columns and labels:
[1] = NCI screen; cited from earlier work
[2] = tested on: Saccharmyces cerevisiae strains that have mutations in genes related to cell cycle control and DNA repair damage; conditions: Stage0 testing, single concentration, six yeast strains; cited from earlier work

Question: Which results are given for `Cc1ccccc1-c1nc2c3ccccc3c3ccccc3c2[nH]1` [NCI #338970]?
Answer: activity in the In Vivo Anticancer Drug Screen [1]: None of these three compounds showed any activity; activity in the Yeast Anticancer Drug Screen [2]: active
